Drawing on ChEMBL document CHEMBL1151580, “Synthesis and antibacterial activity of some C-3-lactonyl substituted cephalosporins” (1993), this text covers MIC for four compounds.

Assay [1] relates to Escherichia coli. The assay is described as follows: Minimum inhibitory concentration required for antibacterial activity against Escherichia coli 1077. It is filed as functional.
Assay [2] has as its system Escherichia coli. The assay is described as follows: Minimum inhibitory concentration required for antibacterial activity against Escherichia coli ESS. The assay is classed as functional.
Assay [3] relates to Escherichia coli. Description: Minimum inhibitory concentration required for antibacterial activity against Escherichia coli JT425. The assay is classed as functional.
The subject of assay [4] is Escherichia coli. Description: Minimum inhibitory concentration required for antibacterial activity against Escherichia coli 10418. It is filed as functional.
For a further assay, the system named is Enterococcus faecalis. Description: Minimum inhibitory concentration required for antibacterial activity against Ent. faecalis I. The assay is classed as functional.
Assay [5] relates to Haemophilus influenzae. Description: Minimum inhibitory concentration required for antibacterial activity against Haemophilus influenzae NEMC1. The assay is classed as functional.
Assay [6] concerns Haemophilus influenzae. The assay is described as follows: Minimum inhibitory concentration required for antibacterial activity against Haemophilus influenzae Q1. It is filed as functional.
The next assay has as its system Klebsiella pneumoniae. Description: Minimum inhibitory concentration required for antibacterial activity against Klebsiella pneumoniae T767. It is filed as functional.
The next assay has as its system Moraxella catarrhalis. Description: Minimum inhibitory concentration required for antibacterial activity against Moraxella catarrhalis Ravasio. It is filed as functional.
Another assay relates to Morganella morganii. The assay is described as follows: Minimum inhibitory concentration required for antibacterial activity against Morg. morganii T361. The assay is classed as functional.
Another assay deals with Pseudomonas aeruginosa. The assay is described as follows: Minimum inhibitory concentration required for antibacterial activity against Pseudomonas aeruginosa 10662. The assay is classed as functional.
Another assay deals with Proteus mirabilis. Description: Minimum inhibitory concentration required for antibacterial activity against Pr. mirabilis C977. The assay is classed as functional.
Assay [7] has as its system Staphylococcus aureus. The assay is described as follows: Minimum inhibitory concentration required for antibacterial activity against Staphylococcus aureus MB9. The assay is classed as functional.
For assay [8], the system named is Staphylococcus epidermidis. Description: Minimum inhibitory concentration required for antibacterial activity against Staphylococcus epidermidis PHLN 20. The assay is classed as functional.
The next assay deals with Streptococcus pyogenes. Description: Minimum inhibitory concentration required for antibacterial activity against Streptococcus pyogenes CN 10. The assay is classed as functional.
The test system of a further assay is Streptococcus agalactiae. The assay is described as follows: Minimum inhibitory concentration required for antibacterial activity against Streptococcus agalactiae 2798. The assay is classed as functional.
Assay [9] concerns Streptococcus pneumoniae. The assay is described as follows: Minimum inhibitory concentration required for antibacterial activity against Streptococcus pneumoniae 1761. The assay is classed as functional.
The test system of assay [10] is Streptococcus pneumoniae. The assay is described as follows: Minimum inhibitory concentration required for antibacterial activity against Streptococcus pneumoniae PU 7. The assay is classed as functional.
Assay [11] deals with Staphylococcus aureus. The assay is described as follows: Minimum inhibitory concentration required for antibacterial activity against Staphylococcus aureus Oxford.
Assay [12] deals with Staphylococcus aureus. Description: Minimum inhibitory concentration required for antibacterial activity against Staphylococcus aureus Russell.
Assay [13] deals with Staphylococcus aureus. The assay is described as follows: Minimum inhibitory concentration required for antibacterial activity against Staphylococcus aureus Oxford. It is filed as functional.
Assay [14] has as its system Staphylococcus aureus. The assay is described as follows: Minimum inhibitory concentration required for antibacterial activity against Staphylococcus aureus Russell. It is filed as functional.

Bounds are passed on as bounds.

On to `CO/N=C(\C(=O)N[C@@H]1C(=O)N2C(C(=O)[O-])=C(/C=C3\C=C(C)C(=O)O3)CS[C@H]12)c1csc(N)n1.[Na+]`, for which the MIC against Escherichia coli [1] is 1 µg/mL; against Escherichia coli [2] it was < 0.03 µg/mL; against Escherichia coli [3] it was 2 µg/mL; against Escherichia coli [4], < 0.03 µg/mL; in the assay on Enterococcus faecalis it was 16 µg/mL; with Haemophilus influenzae [5], < 0.03 µg/mL. The MIC in the assay with Haemophilus influenzae [6] is < 0.03 µg/mL; with Klebsiella pneumoniae, 1 µg/mL; against Moraxella catarrhalis, 8 µg/mL; in the assay with Morganella morganii it was < 0.06 µg/mL; against Pseudomonas aeruginosa, 32 µg/mL; against Proteus mirabilis, 0.06 µg/mL. The MIC with Staphylococcus aureus [7] is 4 µg/mL; in [8] it was 2 µg/mL; against Streptococcus pyogenes it was < 0.03 µg/mL; against Streptococcus agalactiae, < 0.03 µg/mL; in the assay with Streptococcus pneumoniae [9] it was < 0.03 µg/mL; against Streptococcus pneumoniae [10], 0.5 µg/mL. In addition, the MIC with Staphylococcus aureus [11] was determined as 1 µg/mL; with Staphylococcus aureus [12], 2 µg/mL.
For the compound `CO/N=C(\C(=O)N[C@@H]1C(=O)N2C(C(=O)[O-])=C(CC3C=CC(=O)O3)CS[C@H]12)c1csc(N)n1.[Na+]` (stereo not given in full), the MIC in the assay on Escherichia coli [1] was 0.5 µg/mL; against Escherichia coli [2], < 0.03 µg/mL; against Escherichia coli [3] it was 4 µg/mL; against Escherichia coli [4], 0.06 µg/mL; with Enterococcus faecalis, > 64 µg/mL; against Haemophilus influenzae [5] it was < 0.03 µg/mL. The MIC was 0.06 µg/mL in the assay with Haemophilus influenzae [6]; 0.5 µg/mL against Klebsiella pneumoniae; 0.5 µg/mL with Moraxella catarrhalis; 0.5 µg/mL against Morganella morganii; > 64 µg/mL against Pseudomonas aeruginosa; 0.25 µg/mL against Proteus mirabilis. The MIC against Staphylococcus aureus [7] was 4 µg/mL; in the assay on Staphylococcus aureus [13], 1 µg/mL; in the assay with Staphylococcus aureus [14], 1 µg/mL; in [8], 4 µg/mL; in the assay on Streptococcus pyogenes, < 0.03 µg/mL; against Streptococcus agalactiae, 0.06 µg/mL. Besides, the MIC in the assay with Streptococcus pneumoniae [9] is < 0.03 µg/mL; with Streptococcus pneumoniae [10] it was 4 µg/mL.
`CO/N=C(\C(=O)N[C@@H]1C(=O)N2C(C(=O)[O-])=C(C3CCC(=O)O3)CS[C@H]12)c1csc(N)n1.[Na+]` (stereo not given in full): the MIC was 0.12 µg/mL in the assay with Escherichia coli [1]; < 0.03 µg/mL in the assay on Escherichia coli [2]; 1 µg/mL with Escherichia coli [3]; < 0.03 µg/mL in the assay with Escherichia coli [4]; > 64 µg/mL in the assay with Enterococcus faecalis; < 0.03 µg/mL against Haemophilus influenzae [5]. For the same compound, the MIC against Haemophilus influenzae [6] is 0.06 µg/mL; with Klebsiella pneumoniae it was 0.06 µg/mL; against Moraxella catarrhalis it was 2 µg/mL; with Morganella morganii, 0.06 µg/mL; against Pseudomonas aeruginosa it was 64 µg/mL; against Proteus mirabilis, < 0.03 µg/mL. The MIC is 2 µg/mL with Staphylococcus aureus [7]; 1 µg/mL in the assay with Staphylococcus aureus [13]; 1 µg/mL against Staphylococcus aureus [14]; 0.5 µg/mL in assay [8]; < 0.03 µg/mL with Streptococcus pyogenes; 0.06 µg/mL against Streptococcus agalactiae. In addition, the MIC in the assay with Streptococcus pneumoniae [9] was < 0.03 µg/mL; in the assay with Streptococcus pneumoniae [10], 2 µg/mL.
Regarding `CO/N=C(\C(=O)N[C@@H]1C(=O)N2C(C(=O)[O-])=C(COC(C)=O)CS[C@H]12)c1csc(N)n1.[Na+]` [CEFOTAXIME SODIUM], the MIC against Escherichia coli [1] was < 0.03 µg/mL; against Escherichia coli [2], < 0.03 µg/mL; in the assay on Escherichia coli [3], 0.5 µg/mL; in the assay with Escherichia coli [4], < 0.03 µg/mL; in the assay with Enterococcus faecalis it was > 64 µg/mL; with Haemophilus influenzae [5], < 0.03 µg/mL. Further, the MIC in the assay on Haemophilus influenzae [6] is < 0.03 µg/mL; with Klebsiella pneumoniae, 0.06 µg/mL; in the assay on Moraxella catarrhalis, 0.25 µg/mL; in the assay with Morganella morganii it was 2 µg/mL; in the assay on Pseudomonas aeruginosa it was 16 µg/mL; against Proteus mirabilis it was < 0.03 µg/mL. Moreover, the MIC with Staphylococcus aureus [7] was 4 µg/mL; against Staphylococcus aureus [13], 2 µg/mL; with Staphylococcus aureus [14], 2 µg/mL; in assay [8] it was 1 µg/mL; in the assay on Streptococcus pyogenes it was < 0.03 µg/mL; in the assay on Streptococcus agalactiae, 0.12 µg/mL. Further, the values for the MIC with Streptococcus pneumoniae [9] and in the assay on Streptococcus pneumoniae [10] were < 0.03 µg/mL and 2 µg/mL, respectively.
